The record followed here is patent US20240368159A1, “HPK1 DEGRADERS, COMPOSITIONS COMPRISING THE HPK1 DEGRADER, AND METHODS OF USING THE SAME” (BIOFRONT LTD, priority 2021, published 2024).

The test has as its target T1, HPK1 protein (Homo sapiens, UniProt Q92918).
T1 construct: purchased Signal Chem M23-11G-10
T1 sequence (Q92918 1-346 limits assumed): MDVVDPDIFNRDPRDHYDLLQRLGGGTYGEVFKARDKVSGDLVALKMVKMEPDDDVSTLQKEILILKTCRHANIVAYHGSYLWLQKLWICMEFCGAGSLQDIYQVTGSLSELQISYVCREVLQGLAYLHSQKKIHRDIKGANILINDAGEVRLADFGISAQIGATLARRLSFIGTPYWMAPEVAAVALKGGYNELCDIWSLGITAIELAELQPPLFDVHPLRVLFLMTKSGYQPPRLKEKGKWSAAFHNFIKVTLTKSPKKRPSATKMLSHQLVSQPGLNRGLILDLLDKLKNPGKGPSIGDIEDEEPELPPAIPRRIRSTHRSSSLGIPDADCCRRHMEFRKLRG
The test is described as follows: HPK1 enzyme inhibition assay (ADP-Glo). Conditions: MBP substrate, ATP, ADP-Glo readout. It is filed as biochemical. As to the method: The compound was dissolved in 100% DMSO at the concentration of 10 mM. The HPK1 protein was purchased from Signal Chem (M23-11G-10). 2.5 μL per well of 2×HPK1 protein was added to assay plate containing the test compound, centrifuged at 1500 rpm for 1 minute, and then incubated at 25° C. for 60 minutes. MBP protein was purchased from Signal Chem (M42-51N) and ATP was purchased from Promega (V9102). The two were added 2.5 μL per well mixture of 2×MBP (0.2 ug/ul) and ATP (20 μM), centrifuged at 1500 rpm for 1 minute, then incubated at 25° C. for 60 minutes. Then added 5 μL of ADP-Glo from Promega (V9102) to the assay plate and depleted the unconsumed ATP for 60 minutes. Then centrifuged at 1500 rpm for 1 minute and incubated at 25° C. for 60 minutes. Finally, 10 μL of the kinase assay reagent from Promega (V9102) was added to the assay plate to convert ADP to ATP, centrifuged at 1500 rpm for 1 minute, incubate at 25° C. for 40 minutes. After 40 minutes incubation, the […] was determined. Based on the results, the IC50 value of the compound was calculated.
(ADP-Glo first removes unused ATP, then detects ADP through luciferase.)
By IC50 is commonly meant the concentration at which inhibition is half-maximal. Read a low IC50 as higher potency. Turning to `CCc1c[nH]c2ncc(-c3cccc(N4CCN(C(=O)CCOCCOCc5cn(-c6cccc7c6CN(C6CCC(=O)NC6=O)C7=O)nn5)CC4=O)c3)c(Cl)c12` (stereo not shown) [Example 13, 3-(4-(4-((2-(3-(4-(3-(4-chloro-3-ethyl-1H-pyrrolo[2,3-b]pyridin-5-yl)phenyl)-3-oxopiperazin-1-yl)-3-oxopropoxy)ethoxy)methyl)-1H-1,2,3-triazol-1-yl)-1-oxoisoindolin-2-yl)piperidine-2,6-dione], the IC50 lay within 10 to 100 nM.
In the case of `CCc1c[nH]c2ncc(-c3cccc(N4CCN(C(=O)CCCCCCCOc5ccc6c(c5)C(=O)N(C5CCC(=O)NC5=O)C6)CC4=O)c3)c(Cl)c12` (stereo not shown) [Example 65, 3-(6-((8-(4-(3-(4-chloro-3-ethyl-1H-pyrrolo[2,3-b]pyridin-5-yl)phenyl)-3-oxopiperazin-1-yl)-8-oxooctyl)oxy)-1-oxoisoindolin-2-yl)piperidine-2,6-dione] it was 10 to 100 nM; in that of `CCc1c[nH]c2ncc(-c3cccc(N4CCN(CC(=O)N5CCN(c6ccc7c(c6)C(=O)N(C6CCC(=O)NC6=O)C7=O)CC5)CC4=O)c3)c(Cl)c12` (stereo not shown) [Example 34, 5-(4-(2-(4-(3-(4-chloro-3-ethyl-1H-pyrrolo[2,3-b]pyridin-5-yl)phenyl)-3-oxopiperazin-1-yl)acetyl)piperazin-1-yl)-2-(2,6-dioxopiperidin-3-yl)isoindoline-1,3-dione], 10 to 100 nM; in that of `CCc1c[nH]c2ncc(-c3cccc(N4CCN(CC5CN(c6ccc7c(c6)C(=O)N(C6CCC(=O)NC6=O)C7=O)C5)CC4=O)c3)c(Cl)c12` (stereo not shown) [Example 89], 10 to 100 nM.
`CCc1c[nH]c2ncc(-c3cccc(N4CCN(C(=O)COc5cccc6c5CN(C5CCC(=O)NC5=O)C6=O)CC4=O)c3)c(Cl)c12` (stereo not shown) [Example 3] registered a half-inhibitory concentration (IC50) of no more than 10 nM.
For the compound `CCc1c[nH]c2ncc(-c3cccc(N4CCN(C(=O)CCCCCN(C)c5cccc6c5CN(C5CCC(=O)NC5=O)C6=O)CC4=O)c3)c(Cl)c12` (stereo not shown) [Example 14, 3-(4-((6-(4-(3-(4-chloro-3-ethyl-1H-pyrrolo[2,3-b]pyridin-5-yl)phenyl)-3-oxopiperazin-1-yl)-6-oxohexyl)(methyl)amino)-1-oxoisoindolin-2-yl)piperidine-2,6-dione], the IC50 lay in the range of 10 to 100 nM.
In turn, `CCc1c[nH]c2ncc(-c3cccc(N4CCN(C(=O)COc5ccc6c(c5)C(=O)N(C5CCC(=O)NC5=O)C6)CC4=O)c3)c(Cl)c12` (stereo not shown) [Example 66] displayed an IC50 of no more than 10 nM.
With `O=C1CCN(c2cnc3cc(C4CCN(CCCN5CCN(c6cccc(-c7cnc8[nH]cc(C9CC9)c8c7Cl)c6)C(=O)C5)CC4)ccn23)C(=O)N1` [Example 96, 1-(7-(1-(3-(4-(3-(4-chloro-3-cyclopropyl-1H-pyrrolo[2,3-b]pyridin-5-yl)phenyl)-3-oxopiperazin-1-yl)propyl)piperidin-4-yl)imidazo[1,2-a]pyridin-3-yl)dihydro pyrimidine-2,4 (1H,3H)-dione], the IC50 is no more than 10 nM.
Compound `CCc1c[nH]c2ncc(-c3cccc(N4CCN(C(=O)COC5CN(c6cccc7c6C(=O)N(C6CCC(=O)NC6=O)C7=O)C5)CC4=O)c3)c(Cl)c12` (stereo not shown) [Example 18, 4-(3-(2-(4-(3-(4-chloro-3-ethyl-1H-pyrrolo[2,3-b]pyridin-5-yl)phenyl)-3-oxopiperazin-1-yl)-2-oxoethoxy)azetidin-1-yl)-2-(2,6-dioxopiperidin-3-yl)isoindoline-1,3-dione] registered an IC50 of 10 to 100 nM.
Regarding `CCc1c[nH]c2ncc(-c3cccc(N4CCN(C(=O)CCCCCCCNc5cccc6c5CN(C5CCC(=O)NC5=O)C6=O)CC4=O)c3)c(Cl)c12` (stereo not shown) [Example 10, 3-(4-((8-(4-(3-(4-chloro-3-ethyl-1H-pyrrolo[2,3-b]pyridin-5-yl)phenyl)-3-oxopiperazin-1-yl)-8-oxooctyl)amino)-1-oxoisoindolin-2-yl)piperidine-2,6-dione], the IC50 is 100 to 1000 nM.
Compound `CCc1c[nH]c2ncc(-c3cccc(N4CCN(Cc5ccc6c(c5)C(=O)N(C5CCC(=O)NC5=O)C6=O)CC4=O)c3)c(Cl)c12` (stereo not shown) [Example 90, 5-((4-(3-(4-chloro-3-ethyl-1H-pyrrolo[2,3-b]pyridin-5-yl)phenyl)-3-oxopiperazin-1-yl)methyl)-2-(2,6-dioxopiperidin-3-yl)isoindoline-1,3-dione] showed an IC50 of 10 to 100 nM.
`CCc1c[nH]c2ncc(-c3cccc(N4CCN(CCNC(=O)C5CCN(c6ccc7c(c6)C(=O)N(C6CCC(=O)NC6=O)C7=O)CC5)CC4=O)c3)c(Cl)c12` (stereo not shown) [Example 37] yielded an IC50 greater than 1000 nM.
In turn, `CCc1c[nH]c2ncc(-c3cccc(N4CCN(C(=O)CCCCCCCCCOc5cccc6c5CN(C5CCC(=O)NC5=O)C6=O)CC4=O)c3)c(Cl)c12` (stereo not shown) [Example 7, 3-(4-((10-(4-(3-(4-chloro-3-ethyl-1H-pyrrolo[2,3-b]pyridin-5-yl)phenyl)-3-oxopiperazin-1-yl)-10-oxodecyl)oxy)-1-oxoisoindolin-2-yl)piperidine-2,6-dione] registered a 50% inhibitory concentration (IC50) of 100 to 1000 nM.
As for `CCc1c[nH]c2ncc(-c3cccc(N4CCN(C(=O)CCCCCCCOc5cccc6c5C(=O)N(C5CCC(=O)NC5=O)C6=O)CC4=O)c3)c(Cl)c12` (stereo not shown) [Example 9, 4-((8-(4-(3-(4-chloro-3-ethyl-1H-pyrrolo[2,3-b]pyridin-5-yl)phenyl)-3-oxopiperazin-1-yl)-8-oxooctyl)oxy)-2-(2,6-dioxopiperidin-3-yl)isoindoline-1,3-dione], the IC50 was in the range of 10 to 100 nM.
In the case of `O=C1CCC(N2C(=O)c3ccc(CN4CCC(OC(=O)N5CCN(c6cccc(-c7cnc8[nH]cc(C9CC9)c8c7Cl)c6)C(=O)C5)CC4)cc3C2=O)C(=O)N1` (stereo not shown) [Example 94, 1-((2-(2,6-dioxopiperidin-3-yl)-1,3-dioxoisoindolin-5-yl)methyl)piperidin-4-yl 4-(3-(4-chloro-3-cyclopropyl-1H-pyrrolo[2,3-b]pyridin-5-yl)phenyl)-3-oxopiperazine-1-carboxylate] it was 10 to 100 nM; in that of `CCc1c[nH]c2ncc(-c3cccc(N4CCN(C(=O)CCCOc5ccc6c(c5)C(=O)N(C5CCC(=O)NC5=O)C6)CC4=O)c3)c(Cl)c12` (stereo not shown) [Example 67], 10 to 100 nM; in that of `CCc1c[nH]c2ncc(-c3cccc(N4CCN(C(=O)CCCCCOc5ccc6c(c5)C(=O)N(C5CCC(=O)NC5=O)C6)CC4=O)c3)c(Cl)c12` (stereo not shown) [Example 68, 3-(6-((6-(4-(3-(4-chloro-3-ethyl-1H-pyrrolo[2,3-b]pyridin-5-yl)phenyl)-3-oxopiperazin-1-yl)-6-oxohexyl)oxy)-1-oxoisoindolin-2-yl)piperidine-2,6-dione], 10 to 100 nM.
In turn, `O=C1CCC(N2C(=O)c3ccc(CCN4CCC(OC(=O)N5CCN(c6cccc(-c7cnc8[nH]cc(C9CC9)c8c7Cl)c6)C(=O)C5)CC4)cc3C2=O)C(=O)N1` (stereo not shown) [Example 98, 1-(2-(2-(2,6-dioxopiperidin-3-yl)-1,3-dioxoisoindolin-5-yl)ethyl)piperidin-4-yl 4-(3-(4-chloro-3-cyclopropyl-1H-pyrrolo[2,3-b]pyridin-5-yl)phenyl)-3-oxopiperazine-1-carboxylate] came in with an IC50 of 10 to 100 nM.
With `CCc1c[nH]c2ncc(-c3cccc(N4CCN(C(=O)CCN5CCN(c6cccc7c6C(=O)N(C6CCC(=O)NC6=O)C7=O)CC5)CC4=O)c3)c(Cl)c12` (stereo not shown) [Example 20, 4-(4-(3-(4-(3-(4-chloro-3-ethyl-1H-pyrrolo[2,3-b]pyridin-5-yl)phenyl)-3-oxopiperazin-1-yl)-3-oxopropyl)piperazin-1-yl)-2-(2,6-dioxopiperidin-3-yl)isoindoline-1,3-dione], the IC50 was 10 to 100 nM.
For `CCc1c[nH]c2ncc(-c3cccc(N4CCN(C(=O)CCCCCNc5ccc6c(c5)C(=O)N(C5CCC(=O)NC5=O)C6=O)CC4=O)c3)c(Cl)c12` (stereo not shown) [Example 19, 5-((6-(4-(3-(4-chloro-3-ethyl-1H-pyrrolo[2,3-b]pyridin-5-yl)phenyl)-3-oxopiperazin-1-yl)-6-oxohexyl)amino)-2-(2,6-dioxopiperidin-3-yl)isoindoline-1,3-dione], the IC50 is 10 to 100 nM.
In the case of `CCc1c[nH]c2ncc(-c3cccc(N4CCN(CCc5ccc6c(c5)C(=O)N(C5CCC(=O)NC5=O)C6=O)CC4=O)c3)c(Cl)c12` (stereo not shown) [Example 97, 5-(2-(4-(3-(4-chloro-3-ethyl-1H-pyrrolo[2,3-b]pyridin-5-yl)phenyl)-3-oxopiperazin-1-yl)ethyl)-2-(2,6-dioxopiperidin-3-yl)isoindoline-1,3-dione] it was no more than 10 nM; in that of `CCc1c[nH]c2ncc(-c3cccc(N4CCN(C(=O)CCCCCCCOc5cccc6c5CN(C5CCC(=O)N(C)C5=O)C6=O)CC4=O)c3)c(Cl)c12` (stereo not shown) [Example 2, 3-(4-((8-(4-(3-(4-chloro-3-ethyl-1H-pyrrolo[2,3-b]pyridin-5-yl)phenyl)-3-oxopiperazin-1-yl)-8-oxooctyl)oxy)-1-oxoisoindolin-2-yl)-1-methylpiperidine-2,6-dione], 100 to 1000 nM.
